Measured values: ChEMBL document CHEMBL3797190, “Development of 3,5-Dinitrobenzylsulfanyl-1,3,4-oxadiazoles and Thiadiazoles as Selective Antitubercular Agents Active Against Replicating and Nonreplicating Mycobacterium tuberculosis” (J Med Chem, 2016)
In brackets after ≈: the same amount, converted by molar mass. Activity calls are given as the source filed them. The calls are words filed in the database; no cut-off is given here.

Assays:
[1] = test system: Mycobacterium tuberculosis; experiment: Inhibition of RNA biosynthesis in Mycobacterium tuberculosis H37Ra assessed as reduction of [14C]-uracil incorporation at 1 ug/ml preincubated for 1 hr followed by radiolabeling with [14C]-uracil for 24 hrs by scintillation spectrometry; type: functional
[2] = test system: Mycobacterium tuberculosis; experiment: Inhibition of proteosynthesis in Mycobacterium tuberculosis H37Ra assessed as reduction of [14C]-methionine incorporation at 1 ug/ml preincubated for 1 hr followed by radiolabeling with [14C]-methionine for 24 hrs by scintillation spectrometry; type: functional
[3] = test system: Mycobacterium tuberculosis; experiment: Antimycobacterial activity against Mycobacterium tuberculosis CNCTC My 331/88 after 14 days by microdilution method; type: functional; settings: CNCTC My 331/88, 336 h
[4] = test system: Mycobacterium avium; experiment: Antimycobacterial activity against Mycobacterium avium CNCTC My 330/88 after 14 days by microdilution method; type: functional; settings: CNCTC My 330/88, 336 h
[5] = test system: Mycobacterium avium; experiment: Antimycobacterial activity against Mycobacterium avium CNCTC My 330/88 after 21 days by microdilution method; type: functional; settings: CNCTC My 330/88, 504 h
[6] = test system: Mycobacterium kansasii; experiment: Antimycobacterial activity against Mycobacterium kansasii CNCTC My 235/80 after 21 days by microdilution method; type: functional; settings: CNCTC My 235/80, 504 h
[7] = test system: Mycobacterium kansasii; experiment: Antimycobacterial activity against Mycobacterium kansasii CNCTC My 6509/96 after 21 days by microdilution method; type: functional; settings: CNCTC My 6509/96, 504 h
[8] = test system: HeLa; experiment: Cytotoxicity against human HeLa cells assessed as cell viability after 24 hrs by MTS assay; type: cell-based
[9] = test system: HeLa; experiment: Cytotoxicity against human HeLa cells assessed as cell viability after 48 hrs by MTS assay; type: cell-based
[10] = Cytotoxicity against MDCK2-MDR1 cells assessed as cell viability after 24 hrs by MTS assay; type: ADME, cell-based; settings: Canis lupus familiaris, MDCK-II
[11] = Cytotoxicity against human HuH7 cells assessed as cell viability at 20 uM after 24 hrs by MTS assay; type: cell-based, Huh-7; settings: read-out: Activity
[12] = Cytotoxicity against human HeLa cells assessed as cell viability at 20 uM after 24 hrs by MTS assay; type: cell-based; settings: read-out: Activity
[13] = Cytotoxicity against human HeLa cells assessed as cell viability at 20 uM after 48 hrs by MTS assay; type: cell-based; settings: read-out: Activity
[14] = Cytotoxicity against MDCK2-MDR1 cells assessed as cell viability at 20 uM after 48 hrs by MTS assay; type: ADME, cell-based, Canis lupus familiaris, MDCK-II; settings: dog, read-out: Activity
[15] = Cytotoxicity against primary human hepatocytes assessed as cell viability at 20 uM after 48 hrs by MTS assay; type: cell-based, Hepatocyte; settings: read-out: Activity
[16] = test system: HepG2; experiment: Cytotoxicity against human HepG2 cells assessed as cell viability after 48 hrs by MTS assay; type: cell-based; settings: HepG2, 48 h
[17] = Cytotoxicity against human HepG2 cells assessed as cell viability at 50 uM after 48 hrs by MTS assay; type: cell-based; settings: read-out: Activity
[18] = test system: Salmonella typhimurium; experiment: Mutagenic activity in Salmonella typhimurium TA100 assessed as reverse mutation at 30 uM by Ames test; type: toxicity, organism-based; settings: salmonella enterica subsp. enterica serovar typhimurium
[19] = test system: Salmonella typhimurium; experiment: Mutagenic activity in Salmonella typhimurium TA98 assessed as reverse mutation at 30 uM by Ames test; type: toxicity, organism-based; settings: salmonella enterica subsp. enterica serovar typhimurium
[20] = Chemical stability of compound in DMSO at 100 uM after 1 month by HPLC analysis; type: physicochemical; settings: 730.5 h
[21] = Intrinsic clearance in human liver microsomes assessed per mg of protein at 3 uM preincubated for 5 mins followed by NADPH addition by HPLC analysis; type: ADME; settings: read-out: CLH
[22] = Aqueous solubility of compound in water with 0.01 to 1% DMSO at 2 to 200 uM by HPLC analysis; type: physicochemical
[23] = Aqueous solubility of compound in distilled water at 0.2 mg/ml after 24 hrs by HPLC analysis; type: physicochemical
[24] = Selectivity index, ratio of IC50 for human HepG2 cells to MIC>99 for Mycobacterium tuberculosis CNCTC My 331/88; type: toxicity, cell-based; settings: read-out: Selectivity Index
[25] = test system: Candida albicans; experiment: Antifungal activity against Candida albicans ATCC 44859 after 24 to 48 hrs by broth microdilution method; type: functional
[26] = test system: Pichia kudriavzevii; experiment: Antifungal activity against Candida krusei E28 after 24 to 48 hrs by broth microdilution method; type: functional
[27] = test system: Nakaseomyces glabratus; experiment: Antifungal activity against Candida glabrata 20/I after 24 to 48 hrs by broth microdilution method; type: functional
[28] = test system: Trichophyton mentagrophytes; experiment: Antifungal activity against Trichophyton mentagrophytes 445 after 72 to 120 hrs by broth microdilution method; type: functional
[29] = test system: Staphylococcus aureus; experiment: Antibacterial activity against Staphylococcus aureus ATCC 6538 after 24 to 48 hrs by broth microdilution method; type: functional
[30] = test system: Staphylococcus epidermidis; experiment: Antibacterial activity against Staphylococcus epidermidis H 6966/08 after 24 to 48 hrs by broth microdilution method; type: functional
[31] = test system: Enterococcus faecalis; experiment: Antibacterial activity against Enterococcus faecalis J 14365/08 after 24 to 48 hrs by broth microdilution method; type: functional
[32] = test system: Escherichia coli; experiment: Antibacterial activity against Escherichia coli ATCC 8739 after 24 to 48 hrs by broth microdilution method; type: functional
[33] = test system: Klebsiella pneumoniae; experiment: Antibacterial activity against Klebsiella pneumoniae D 11750/08 after 24 to 48 hrs by broth microdilution method; type: functional
[34] = test system: Pseudomonas aeruginosa; experiment: Antibacterial activity against Pseudomonas aeruginosa ATCC 9027 after 24 to 48 hrs by broth microdilution method; type: functional
[35] = test system: Mycobacterium tuberculosis; experiment: Antimycobacterial activity against non-replicating streptomycin-starved Mycobacterium tuberculosis SS18b-Lux measured at 5 mins to 6 days by luciferase assay; type: functional, organism-based
[36] = test system: Mycobacterium tuberculosis; experiment: Antimycobacterial activity against non-replicating streptomycin-starved Mycobacterium tuberculosis SS18b-Lux by resazurin reduction microplate assay; type: functional, organism-based
[37] = molecular target: Decaprenylphosphoryl-beta-D-ribose oxidase (Mycobacterium smegmatis (strain ATCC 700084 / mc(2)155)) (UniProt A0R607); experiment: Inhibition of DprE1 in mixture of Mycobacterium smegmatis MC2 155 membrane and cell envelope fractions assessed as incorporation of P[14C]RPP into [14C]-decaprenylphosphoryl arabinose up to 0.6 mM incubated for 1 hr by TLC/autoradiographic method; settings: Mycolicibacterium smegmatis MC2 155
[38] = test system: Mycobacterium tuberculosis; experiment: Antimycobacterial activity against Mycobacterium tuberculosis H37Ra assessed as growth inhibition at 0.5 ug/ml preincubated for 24 hrs followed by radiolabeling with [14C]-acetate for 24 hrs; type: functional; settings: read-out: GI
[39] = test system: Mycobacterium tuberculosis H37Ra; experiment: Inhibition of DprE1 in Mycobacterium tuberculosis H37Ra assessed as accumulation of trehalose dimycolate at 0.2 ug/ml preincubated for 24 hrs followed by radiolabeling with [14C]-acetate for 24 hrs by TLC/autoradiographic method
[40] = test system: Mycobacterium tuberculosis H37Ra; experiment: Inhibition of DprE1 in Mycobacterium tuberculosis H37Ra assessed as accumulation of trehalose dimycolate at 0.5 ug/ml preincubated for 24 hrs followed by radiolabeling with [14C]-acetate for 24 hrs by TLC/autoradiographic method
[41] = test system: Mycobacterium tuberculosis; experiment: Antimycobacterial activity against Mycobacterium tuberculosis H37Ra assessed as growth inhibition at 1 ug/ml preincubated for 1 hr followed by radiolabeling with [14C]-uracil, [14C]-methionine for 24 hrs; type: functional, organism-based

Chain of Decaprenylphosphoryl-beta-D-ribose oxidase (Mycobacterium smegmatis (strain ATCC 700084 / mc(2)155)) (A0R607 whole entry): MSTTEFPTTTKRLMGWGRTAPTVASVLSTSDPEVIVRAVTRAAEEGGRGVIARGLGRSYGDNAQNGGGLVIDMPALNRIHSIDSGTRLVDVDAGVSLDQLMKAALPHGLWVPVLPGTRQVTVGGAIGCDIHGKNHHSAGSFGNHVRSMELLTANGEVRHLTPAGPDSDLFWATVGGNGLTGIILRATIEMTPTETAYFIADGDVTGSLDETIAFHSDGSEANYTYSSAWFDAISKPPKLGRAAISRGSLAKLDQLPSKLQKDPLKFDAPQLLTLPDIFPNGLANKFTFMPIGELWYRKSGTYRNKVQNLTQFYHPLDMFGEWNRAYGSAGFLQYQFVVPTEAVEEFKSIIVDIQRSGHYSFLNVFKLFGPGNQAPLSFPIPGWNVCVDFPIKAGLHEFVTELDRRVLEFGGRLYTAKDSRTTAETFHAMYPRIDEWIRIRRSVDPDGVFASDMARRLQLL

Compound: Cc1ccc(-c2nnc(SCc3cc([N+](=O)[O-])cc([N+](=O)[O-])c3)o2)cc1
- inhibition at 1 µg/mL [1]: 50%
- inhibition at 1 µg/mL [2]: 37%
- MIC99 [3]: ≤ 0.03 µM
- MIC99 [4]: 8 µM (≈ 2.98 µg/mL)
- MIC99 [5]: 16 µM (≈ 5.96 µg/mL)
- MIC99 [6]: 0.06 µM (≈ 0.0223 µg/mL)
- MIC99 [7]: 0.125 µM (≈ 0.0465 µg/mL)
- IC50 [8]: > 20 µM
- IC50 [9]: > 20 µM
- IC50 [10]: > 20 µM
- viability at 24 h, 20 µM [11]: 101%
- viability at 24 h, 20 µM [12]: 87.2%
- viability at 48 h, 20 µM [13]: 118%
- viability at 48 h, 20 µM [14]: 48.5%
- viability at 48 h, 20 µM [15]: 95.1%
- IC50 [16]: > 50 µM
- viability at 48 h, 50 µM [17]: 95.5%
- Activity [18]: Non-toxic
- Activity [19]: Non-toxic
- Stability [20]: Stable
- microsomal CLint at 3 µM [21]: 86 µL/min/mg
- solubility kinetic [22]: 0.5 µM (≈ 0.186 µg/mL)
- solubility at 24 h [23]: 0.067 µM (≈ 0.0249 µg/mL)
- selectivity ratio [24]: > 500
- MIC80 [25]: > 125 µM
- MIC80 [26]: > 125 µM
- MIC80 [27]: > 125 µM
- MIC50 [28]: > 125 µM
- MIC95 [29]: > 125 µM
- MIC95 [30]: > 125 µM
- MIC95 [31]: > 125 µM
- MIC95 [32]: > 125 µM
- MIC95 [33]: > 125 µM
- MIC95 [34]: > 125 µM
- Activity [35]: Dose-dependent effect
- Activity [36]: Dose-dependent effect
- inhibition [37]: inactive
- inhibition of growth at 0.5 µg/mL [38]: 36%
- inhibition [39]: inactive
- inhibition [40]: inactive
- growth inhibition (GI) [41]: Active

Compound: O=[N+]([O-])c1cc(CSc2nnc(-c3ccc(Cl)cc3)s2)cc([N+](=O)[O-])c1
- inhibition at 1 µg/mL [1]: 13%
- inhibition at 1 µg/mL [2]: 20%
- MIC99 [3]: 0.06 µM (≈ 0.0245 µg/mL)
- MIC99 [4]: 8 µM (≈ 3.27 µg/mL)
- MIC99 [5]: 16 µM (≈ 6.54 µg/mL)
- MIC99 [6]: 0.5 µM (≈ 0.204 µg/mL)
- MIC99 [7]: 0.5 µM (≈ 0.204 µg/mL)
- IC50 [8]: > 20 µM
- IC50 [9]: > 20 µM
- IC50 [10]: > 20 µM
- viability at 24 h, 20 µM [11]: 94%
- viability at 24 h, 20 µM [12]: 92.8%
- viability at 48 h, 20 µM [13]: 108%
- viability at 48 h, 20 µM [14]: 91.4%
- viability at 48 h, 20 µM [15]: 102%
- IC50 [16]: > 50 µM
- viability at 48 h, 50 µM [17]: 98.5%
- Activity [18]: Non-toxic
- Activity [19]: Non-toxic
- Stability [20]: Stable
- microsomal CLint at 3 µM [21]: 29 µL/min/mg
- solubility kinetic [22]: 0.54 µM (≈ 0.221 µg/mL)
- solubility at 24 h [23]: 0.03 µM (≈ 0.0123 µg/mL)
- selectivity ratio [24]: > 500
- MIC80 [25]: > 125 µM
- MIC80 [26]: > 125 µM
- MIC80 [27]: > 125 µM
- MIC50 [28]: > 125 µM
- MIC95 [29]: > 125 µM
- MIC95 [30]: > 125 µM
- MIC95 [31]: > 125 µM
- MIC95 [32]: > 125 µM
- MIC95 [33]: > 125 µM
- MIC95 [34]: > 125 µM
- Activity [35]: Dose-dependent effect
- Activity [36]: Dose-dependent effect
- inhibition [37]: inactive
- inhibition of growth at 0.5 µg/mL [38]: 12%
- inhibition [39]: inactive
- inhibition [40]: inactive
- growth inhibition (GI) [41]: inactive
